# From patent publication US20250099403A1, “IDENTIFICATION OF ACTIVITIES OF GUT MICROBE METABOLITES” (UNIVERSITY OF SOUTH CAROLINA, priority 2023, published 2025)
# How the values were obtained:
# Macrophages = test: Western blot of TLR4 downstream signaling in LPS-treated macrophages; assay type: cell-based; details: 100 ng/ml LPS, 30 minutes
# Procedure: Macrophages were treated with 100 ng/ml LPS in the presence of increasing concentrations of Sol A or B (from 0 to 20 μM) for 30 minutes. Following treatment, all cellular protein was extracted using MPER lysis buffer (Thermo Scientific). Protein samples were loaded onto SDS-PAGE gels for separation, then transferred to nitrocellulose membranes (Amersham Biosciences). Primary antibodies and HRP-conjugated secondary antibodies (Cell Signaling Technology) were used to detect target proteins. Signal was detected using an ECL kit (Thermo Scientific). […] The housekeeping gene β-Actin was used as a loading control.
# MD-2 = molecular target: T1, MD-2 (Homo sapiens, UniProt Q9Y6Y9); test: ELISA-based displacement assay with biotinylated LPS; assay type: binding
# T1 construct: purchased Novus Biologicals
# T1 sequence (Q9Y6Y9 19-160): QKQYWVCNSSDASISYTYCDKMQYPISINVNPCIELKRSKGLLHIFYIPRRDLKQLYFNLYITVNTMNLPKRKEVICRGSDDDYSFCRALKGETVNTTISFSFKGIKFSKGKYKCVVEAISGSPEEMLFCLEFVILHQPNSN
# Procedure: To experimentally determine if SoLs A and B bind to MD-2 and to what extent the SoLs compete with LPS for binding to MD-2, an ELISA-based displacement assay was conducted. Taking advantage of biotinylated LPS, which retains the activity of unconjugated LPS, absorbance generated by an HRP-linked streptavidin probe was measured to determine the relative amount of MD-2 that was bound with biotin-LPS as opposed to MD-2 bound with SoL A or B. 0.1, 1.0, and 10 µM concentrations of SOL A or B and 1 ng/ml biotin-LPS were administered to MD-2 in three sequences: 1) Sol first followed by LPS 1 hour later, 2) LPS first followed by Sol 1 hour later, and 3) both SoL A or B and LPS at the same time.
# ELISA displacement assay. Solid-phase sandwich ELISA kits were purchased from Invitrogen. The ELISA experiments were performed according to the kit instructions, using 50 nM hMD-2 (Novus Biologicals), 1 ng/mL LPS-EB Biotin (Invivogen), and 0.1, 1.0, and 10 µM purified SoL A. SOL A was added to the assay 1 hour before, 1 hour after, or simultaneously with LPS-EB Biotin. Absorbance was measured at 450 nm using a BioTek microplate reader.
# [1] = piroxicam-accelerated Il10-deficient mouse IBD model; assay type: in vivo
# Procedure: Experimental validation of the predictions of Example 1 were carried out using a mouse model of IBD. […] Stimulation of mucosal Toll-like receptors (TLRs) stemming from this mucosal barrier breakdown was another factor in the selection of this model, as it has been previously shown that SoL A suppresses LPS-induced inflammation and LPS is well-known to activate TLR signaling. […]
# Fecal material was collected from IBD 1/10−/−+piroxicam (n=7, female) and pre-IBD control//10−/−mice (n=4, female), extracted metabolites, and the abundance of SoLs was measured by targeted metabolomics using high performance liquid chromatography (HPLC)-high resolution mass spectrometry (HRMS). […] Metabolites with m/z corresponding to major SoLs were detected, specifically SoLs A and B, in all samples tested and their identities were unambiguously determined by HPLC-MS/MS. […]
# Peak areas were calculated using TICs obtained after MS/MS fragmentation and used to measure the abundance of SoLs A and B. Significance was determined using Student's t-test. […] Significance was determined using Mann-Whitney U test. […]
# Piroxicam-accelerated 1110−/−mouse IBD model and analysis. […] Mice were euthanized at 18 days to collect tissues for assessment and intestinal contents for quantification of SoLs. […] Inflammation scores of colon sections were blindly assessed using an Echo Revolve light microscope and accompanying software. […]
# [2] = system: Primary mouse macrophages; test: inflammatory cytokine expression in primary mouse macrophages, agent alone (RT-qPCR); assay type: cell-based; details: agent by itself, n=3
# Procedure: (§1) Primary mouse macrophages were treated with SoL A (as a representative of SoLs) either alone or together with LPS (an agonist of TLR4) or Pam3CSK4 (an agonist of TLR1/2) and the expression of three inflammatory cytokines was measured (IL-6, TNFα, and IL-1β).
# (§2) Preparation and treatment of macrophages. Primary mouse macrophages were prepared by first introducing 3 mL of 3% thioglycolate to mice via intraperitoneal injection. After 3 days, 10 mL of chilled PBS was introduced intraperitoneally to flush out macrophages. The cell suspension was then separated by centrifugation at 300×g for 5 minutes. Cells were seeded in culture dishes containing DMEM with 10% FBS for 1 hour before being washed with serum-free DMEM two times to remove unattached cells. The cells were incubated in serum-free DMEM for 16 hours before treatment. To treat the macrophages, cells were incubated for 6 to 24 hours in DMEM without FBS with addition of LPS (Sigma-Aldrich), Pam3CSK4 (Invivogen), or SoL A. Cells were finally washed twice with Dulbecco's phosphate-buffered saline before being lysed for total RNA or protein extraction.
# mRNA extraction and RT-qPCR in macrophage-based assays. […] The quality and quantity of RNA was then determined using a nanodrop and 1000 ng of mRNA from each sample was used for cDNA synthesis using a First-strand cDNA Synthesis System (Marligen Bioscience), qPCRs reactions were prepared in a 20 uL final volume containing Fast Start Universal SYBR Green Master (Rox) (Roche Applied Science), cDNA template, deionized water, and primers and probes for IL-1β, TNFα, IL-6, and the 18S rRNA which was used as a housekeeping gene Cycling conditions were 95° C. for 10 min followed by 40 cycles of 95° C. for 10 seconds, 60° C. for 15 seconds, and 68° C. for 20 seconds, then a melting curve analysis from 60° C. to 95° C. every 0.2° C. was obtained. […] Relative gene expression levels were calculated using the ΔΔCT method and expression levels of 18S were used to normalize the results.
# THP-1 monocytes [3] = test: M2 polarization of THP-1 derived macrophages (RT-qPCR of markers); assay type: cell-based; details: 10 µM SoL A with IL-4 and IL-1β, 24 hours, n=3
# Procedure: (§3) THP-1 monocytes were treated with IFN-γ and LPS to induce M1 polarization or IL-4 and IL-1β to induce M2 polarization. Successful induction of M1 and M2 polarization was confirmed by morphology changes and subsequent RT-qPCR quantification of cytokine profiles.
# (§4) For all treatments, n=3 and significance was determined using one-way ANOVA: 0.001<p<0.01, *** 0.0001<p<0.001, and **** p<0.0001.
# (§5) THP-1 monocytes were maintained in RPMI16 with 10% heat inactivated FBS, 1% Penicillin-Streptomycin-Ampotericin B, and 50 μM 2-mercaptoethanol prior to differentiation. The cells were differentiated into macrophages with 150 nM PMA for 48 hours. M1 polarization was induced by adding 20 ng/ml IFN-γ and […] LPS for 24 hours. M2 polarization was induced by adding 20 ng/ml IL-4 and 20 ng/ml IL-1β for 24 hours. In all tests, 10 µM Sol A was added at the same time as M1 and M2 differentiation agents. After 24 hours of treatment, total RNA was collected, and RT-qPCR was performed as described above.
# peritoneal macrophages = test: inflammatory cytokine expression in macrophages treated with purified SoL A (qRT-PCR); assay type: cell-based; details: 10UM (FIG. 32 legend)
# [4] = in vivo inflammation after intraperitoneal injection of SoL A; design: species or system mouse; details: 1 mg/kg i.p.
# Procedure: To test whether SoL A can induce inflammation in vivo, mice were treated by intraperitoneal (i.p.) injection of 1 mg/kg of SOL A. At 2 hrs post-injection, FACS analysis of immune cells in the peritoneal exudate was performed.
# TLR1/2 = test: Pam3CSK4-induced cytokine expression in primary mouse macrophages (RT-qPCR); assay type: cell-based
# Procedure: as §1
# On FIG. 16, bars represent mean±standard error. For each treatment, n=3. Significance was determined using Student's t test: * p<0.05, **** p<[…] 0.0001.
# as §2, with “To treat the macrophages, cells were incubated for 6 to 24 hours in DMEM without FBS with addition of LPS (Sigma-Aldrich), Pam3CSK4 (Invivogen), or SoL A. Cells were finally washed twice with Dulbecco's phosphate-buffered saline before being lysed for total RNA or protein extraction.” left out
# mRNA extraction and RT-qPCR in macrophage-based assays. […] Relative gene expression levels were calculated using the ΔΔCT method and expression levels of 18S were used to normalize the results.
# TLR4 = test: LPS-induced cytokine expression in primary mouse macrophages (RT-qPCR); assay type: cell-based; details: SoL A together with LPS, p≤0.0001
# Procedure: as §1
# Preparation and treatment of macrophages. Primary mouse macrophages were prepared by first introducing 3 mL of 3% thioglycolate to mice via intraperitoneal injection. After 3 days, 10 mL of chilled PBS was introduced intraperitoneally to flush out macrophages. The cell suspension was then separated by centrifugation at 300×g for 5 minutes. […]
# mRNA extraction and RT-qPCR in macrophage-based assays. […] The quality and quantity of RNA was then determined using a nanodrop and 1000 ng of mRNA from each sample was used for cDNA synthesis using a First-strand cDNA Synthesis System (Marligen Bioscience), qPCRs reactions were prepared in a 20 uL final volume containing Fast Start Universal SYBR Green Master (Rox) (Roche Applied Science), cDNA template, deionized water, and primers and probes for IL-1β, TNFα, IL-6, and the 18S rRNA which was used as a housekeeping gene Cycling conditions were 95° C. for 10 min followed by 40 cycles of 95° C. for 10 seconds, 60° C. for 15 seconds, and 68° C. for 20 seconds, then a melting curve analysis from 60° C. to 95° C. every 0.2° C. was obtained. […]
# THP-1 monocytes [5] = test: M1 polarization of THP-1 derived macrophages (RT-qPCR of markers); assay type: cell-based; details: 10 µM SoL A with IFN-γ and LPS, 24 hours, n=3
# Procedure: as §3, §4, §5
# [6] = SoL added first, LPS 1 hour later, vs LPS first or together, all concentrations 0.1, 1.0, 10 µM, 1 ng/ml biotin-LPS
# [7] = moving from low to high concentrations of SoL (0.1, 1.0, 10 µM)
Compound,LPS-induced IκBα degradation (Macrophages; SoL 0 to 20 μM),LPS-induced phosphorylation of p38 and ERK1/2 (Macrophages; SoL 0 to 20 μM),LPS-induced phosphorylation of p38 and ERK1/2 (Macrophages; SoL at 20 µM),percent absorbance (MD-2 bound with biotin-LPS) (MD-2; [6]),percent absorbance (MD-2 bound with biotin-LPS) (MD-2; [7]),"expression of inflammatory cytokines (IL-6, TNFα, IL-1β) compared to control [2]",further results
"CC(C)CCCCCCCCCCCC(=O)N[C@@H](CS(=O)(=O)O)[C@H](O)CCCCCCCCCCCC(C)C [SoL B, sulfobacin B]",concentration-dependently suppressed,reduced LPS-induced phosphorylation of p38 and ERK1/2 in a concentration-dependent manner,almost completely blocked,marked decrease,decreased dramatically,,
CN1C(C(=O)Nc2ccccn2)=C(O)c2ccccc2S1(=O)=O [piroxicam],,,,,,,"histological analysis of mouse distal colon ([1]; 1/10−/− mice, diet with 100 ppm piroxicam, 18 days): induced intestinal inflammation; colon expression of inflammatory markers TNFα, NOS2, IL-6, and IL-1β ([1]; 1/10−/−+piroxicam mice vs control, Mann-Whitney U test): significantly increased"
Pam3CSK4,,,,,,significant induction,
"CC(C)CCCCCCCCCCC[C@@H](O)CC(=O)N[C@@H](CS(=O)(=O)O)[C@H](O)CCCCCCCCCCCC(C)C [SoL A, sulfobacin A]",concentration-dependently suppressed,reduced LPS-induced phosphorylation of p38 and ERK1/2 in a concentration-dependent manner,almost completely blocked,marked decrease,decreased dramatically,mild to moderate effect,"effect on M2 polarization (marker expression) (THP-1 monocytes [3]): mostly non-significant effect; expression levels of pro-inflammatory cytokines IL-1a, IL-1B, IL-6, and TNFα (peritoneal macrophages): significantly increased; monocytes and neutrophils in the peritoneal exudate ([4]; 2 hrs post-injection, FACS): more monocytes (Mono) and neutrophils (Neut) were recruited; serum IL-6 levels ([4]; ELISA): significantly and consistently increased; Pam3CSK4-induced IL-6 and TNFα expression (TLR1/2; SoL A together with Pam3CSK4): inhibited Pam3CSK4-induced IL-6 and TNFα to a smaller extent; IL-1β expression induced by Pam3CSK4 (TLR1/2; SoL A together with Pam3CSK4, p≤0.05): increasing; expression of all three cytokines (IL-6, TNFα, IL-1β) induced by LPS (TLR4): significantly suppress; production of M1-polarized macrophage markers IL-6, CXCL10, IL-12β, and TNFα (THP-1 monocytes [5]): significantly reduced"
lipopolysaccharide [LPS],,,,,,significant induction,
